{"source": "paper PMC6407204", "about": "“Oral administration of the cannabigerol derivative VCE-003.2 promotes subventricular zone neurogenesis and protects against mutant huntingtin-induced neurodegeneration” (Translational Neurodegeneration, 2019)", "key": {"[1]": {"tested_on": "osteoblast differentiation", "settings": "compared with full PPARγ-agonists; cited from earlier work"}, "[2]": {"tested_on": "R1 mouse embryonic stem (mES) cell line", "assay": "Mouse embryonic stem cell (R1) neural differentiation, CTIP2 and doublecortin immunofluorescence", "format": "cell-based", "settings": "500 nM during neural differentiation for 21 days, vs vehicle", "method": "R1 mouse embryonic stem (mES) cell line was grown on gelatin 0.1%, in Knockout DMEM supplemented with 20% Knockout Serum Replacement, 1000 U ml-1 of LIF, 0.1 mM of non-essential amino acids, 2 mM ultraglutamine, 50 U ml-1 of penicillin and streptomycin and 0.1 mM of 2-mercaptoethanol. Cells were then differentiated at low density in Defined Default Medium (DDM) containing DMEM/F12 + GlutaMAX supplemented with N2 supplement (1×), 5 mM of Hepes Buffer, 0.1 mM of non-essential amino acids, 1 mM of sodium pyruvate, 2.5 mg ml-1 of AlbuMax-I, 30 mM of D-Glucose, 0.1 mM of non-essential amino acids, 0.1 mM of 2-mercaptoethanol, 50 U ml-1 of penicillin and streptomycin for 12 days. […]\nFree floating coronal brain slices (30 μm) were processed as previously described. […] The lateral SVZ zone was delineated by using DAPI-counterstained cell nuclei, and analyses were performed in the upper dorsal tier, in which positively-labelled cells and immunoreactivity were quantified not beyond 100 μm of the SVZ. Confocal fluorescence images were acquired by using LAS-X software (Wetzlar, Germany) and SP8 microscope with 2 passes by Kalman filter, a 1024X1024 collection box, and pinhole AU 1. […] Cells were quantified within a 20 × 20 μm counting frame, which randomly sampled within a 122.8 × 68.9 μm counting grid. […]"}, "[3]": {"tested_on": "CTIP2 transcriptional activity", "assay": "CTIP2 luciferase transcriptional reporter assay (A4-MARS) in P19 cells", "format": "cell-based, mouse", "settings": "24 h after transfection, neuronal differentiation conditions, vs vehicle", "method": "All reagents, unless indicated, were from Sigma-Aldrich (St. Louis, MO, USA). The synthesis and structure of VCE-003.2 were previously described. Mouse embryonic teratocarcinoma P19 were cultured in high-glucose DMEM (Invitrogen) supplemented with 10% fetal bovine serum and 1% penicillin/streptomycin. P19 cells were plated in 24-well plates and transfected with Lipofectamine 2000 reagent according to the manufacture’s protocol (Invitrogen). Twenty-four hours post transfection, cells were collected for RNA extraction or luciferase assay determinations. P19 neurosphere formation assay was performed using dissociated P19 cells cultured in high-glucose DMEM (Invitrogen) supplemented with 5% of fetal bovine serum and 0. 5 μM retinoic acid. Twenty-four hours later the mean neurosphere size was quantified. Luciferase construct with the MAR sequence A4 of the Ctip2 promoter was kindly provided (R. Grosschedl, Max-Planck-Institute of Immunobiology and Epigenetics, Freiburg, Germany).\nTo study CTIP2 transcriptional activity P19 cells were seeded in 24-well plates and transiently co-transfected with the luciferase reporter vector MARS-A4-luc using Roti-Fect (Carl Roth, Karlsruhe, Germany) following the manufacturer’s instructions. […] After stimulation, the luciferase activities were quantified using Dual-Luciferase Assay (Promega, Madison, WI, USA). […]"}}, "data": [{"smiles": "CCCCCC1=C(NCC)C(=O)C(CC=C(C)CCC=C(C)C)=C(O)C1=O", "note": "[VCE-003.2, 2-(3,7-dimethyl-octa-2,6-dienyl)-6-ethylamino-3-hydroxy-5-pentyl-(1,4) benzoquinone]", "values": [{"measurement": "interference with osteoblast differentiation", "setting": "[1]", "result": "does not interfere with osteoblast differentiation"}, {"measurement": "doublecortin immunoreactivity", "setting": "[2]", "result": "increased"}, {"measurement": "number of CTIP2-positive cells", "setting": "[2]", "result": "increased the number of CTIP2-positive cells"}, {"measurement": "CTIP2 reporter (A4-MARS luciferase) activity", "setting": "[3]", "result": "CTIP2 reporter activation"}]}]}
